Assay results: patent US20260042755A1, “GPR6 INVERSE AGONISTS” (MapLight Therapeutics, Inc., priority 2022, published 2026)

Legend:
GPR3 = molecular target: T1, GPR3 (Homo sapiens, UniProt P46089); test: GPR3 antagonist functional cAMP assay (LANCE Ultra cAMP TR-FRET, CHO cells stably expressing GPR3); format: cell-based
T1 construct: expressed in transfected cells; host or cells: CHO cells
Outline: (§1)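 We measure cAMP by TR-FRET (665 nm) in cells held in glucose-containing Krebs-Ringer buffer with BSA and a PDE inhibitor, after a 45 min, 37 °C compound incubation. IC50s derive from a four-parameter logistic fit.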

GPR6 = molecular target: T2, GPR6 (Homo sapiens, UniProt P46095); test: GPR6 antagonist functional cAMP assay (LANCE Ultra cAMP TR-FRET, CHO cells stably expressing GPR6); format: cell-based
T2 construct: expressed in transfected cells; host or cells: CHO cells
T2 sequence (P46095 whole entry): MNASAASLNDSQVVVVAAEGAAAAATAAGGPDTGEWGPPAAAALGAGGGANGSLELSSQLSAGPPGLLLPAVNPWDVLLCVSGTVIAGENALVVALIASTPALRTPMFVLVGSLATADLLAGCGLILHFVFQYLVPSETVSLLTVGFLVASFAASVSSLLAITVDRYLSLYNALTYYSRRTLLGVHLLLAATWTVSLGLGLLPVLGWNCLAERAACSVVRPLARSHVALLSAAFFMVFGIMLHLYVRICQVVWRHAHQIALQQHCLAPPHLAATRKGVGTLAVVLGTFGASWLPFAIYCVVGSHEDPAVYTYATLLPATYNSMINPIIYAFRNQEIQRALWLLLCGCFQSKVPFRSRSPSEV
Outline: as §1

[1] = CHO cells stably expressing GPR3, cAMP assay
[2] = CHO cells stably expressing GPR6, cAMP assay
[3] = procedure as described in Example 24
[4] = CHO cells stably expressing GPR3, cAMP assay (Example 24)
[5] = CHO cells stably expressing GPR6, cAMP assay (Example 24)

T1 sequence (P46089 whole entry, species assumed): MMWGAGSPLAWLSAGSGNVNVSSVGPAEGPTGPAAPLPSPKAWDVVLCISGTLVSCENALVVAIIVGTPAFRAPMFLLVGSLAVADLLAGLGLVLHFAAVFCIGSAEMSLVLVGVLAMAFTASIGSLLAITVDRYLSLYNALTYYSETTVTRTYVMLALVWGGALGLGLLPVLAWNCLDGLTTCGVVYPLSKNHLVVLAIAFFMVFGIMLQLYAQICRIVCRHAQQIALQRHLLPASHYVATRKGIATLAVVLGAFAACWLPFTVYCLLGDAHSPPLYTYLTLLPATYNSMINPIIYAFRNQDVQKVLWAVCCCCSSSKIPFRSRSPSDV

Structure (SMILES) | IC50 (GPR3; procedure of Example 24) [nM] | IC50 (GPR6; procedure of Example 24) [nM] | IC50 (GPR3; [4]) [nM] | IC50 (GPR6; [5]) [nM] | further results
COc1ccc(OC2CCN(c3nc4c(nc3-c3cnn(C)c3)CN(C(C)=O)CC4)CC2)cc1F [Compound 502, 1-{2-[4-(3-fluoro-4-methoxyphenoxy)-1-piperidyl]-3-(1-methyl-4-pyrazolyl)-5,6,7,8-tetrahydro-1,4,6-triaza-6-naphthyl}-1-ethanone] |  |  |  |  | IC50 (GPR3; [1]): 1000 to 30000 nM; IC50 (GPR6; [2]): 100 to 1000 nM
CC(=O)N1CCc2nc(N3CCC(C(O)c4ccc(F)cc4F)CC3)c(-c3ccc(F)c(N)n3)nc2C1 (stereo not shown) [Compound 703, 1-[3-(6-amino-5-fluoro-2-pyridyl)-2-{4-[(2,4-difluorophenyl)hydroxymethyl]-1-piperidyl}-5,6,7,8-tetrahydro-1,4,6-triaza-6-naphthyl]-1-ethanone] | 1000 to 30000 | 1000 to 30000 |  |  | 
CC(C)(O)C(C)(O)c1cc2nc(N3CCN(Cc4ccccc4F)CC3)c(-c3cnn(C(F)F)c3)nc2cn1 (stereo not shown) [Compound 634, 2-{3-[1-(difluoromethyl)-4-pyrazolyl]-2-{4-[(o-fluorophenyl)methyl]-1-piperazinyl}-1,4,6-triaza-7-naphthyl}-3-methyl-2,3-butanediol] | 1000 to 30000 | 100 to 1000 |  |  | 
CC(C)(O)Cc1cc2nc(N3CCC(Oc4ccc(F)cc4F)CC3)c(-c3cnn(CF)c3)nc2cn1 [Compound 710, 1-{2-[4-(2,4-difluorophenoxy)-1-piperidyl]-3-[1-(fluoromethyl)-4-pyrazolyl]-1,4,6-triaza-7-naphthyl}-2-methyl-2-propanol] | 1000 to 30000 | 100 to 1000 |  |  | 
CC(=O)N1CCc2nc(N3CCN(C(=O)c4ccc(F)cc4C#N)CC3)c(-c3cnn(C)c3)nc2C1 [Compound 286, 2-{4-[6-acetyl-3-(1-methyl-1H-pyrazol-4-yl)-5H,6H,7H,8H-pyrido[3,4-b]pyrazin-2-yl]piperazine-1-carbonyl}-5-fluorobenzonitrile] | ≥ 30000 | 1000 to 30000 |  |  | 
CC(C)(O)[C@@](C)(O)c1cc2nc(N3CCC(Oc4ccc(F)cc4F)CC3)c(-c3cnn(C(F)F)c3)nc2cn1 (single isomer, unassigned) [Compound 656] | 1000 to 30000 | 100 to 1000 |  |  | 
CC(=O)N1CCc2nc(N3CCC(Oc4ccc(F)cc4F)CC3)c(-c3cccc(OC(C)(C)C)n3)nc2C1 [Compound 23, 1-{3-[6-(tert-butoxy)pyridin-2-yl]-2-[4-(2,4-difluorophenoxy)piperidin-1-yl]-5H,6H,7H,8H-pyrido[3,4-b]pyrazin-6-yl}ethan-1-one] |  |  |  |  | IC50 (GPR3; [3]): 100 to 1000 nM; IC50 (GPR6; [3]): 1000 to 30000 nM
CCn1cc(-c2nc3cnc(C(C)(O)C(C)(C)O)cc3nc2N2CCC(Oc3ccc(F)cc3F)CC2)cn1 (stereo not shown) [Compound 631, 2-{2-[4-(2,4-difluorophenoxy)-1-piperidyl]-3-(1-ethyl-4-pyrazolyl)-1,4,6-triaza-7-naphthyl}-3-methyl-2,3-butanediol] | 1000 to 30000 | 100 to 1000 |  |  | 
Cn1cc(-c2nc3cc([C@H](O)C(C)(C)O)ncc3nc2N2CCC(=Cc3ccc(F)cc3F)CC2)cn1 (single isomer, unassigned) [Compound 764] | 100 to 1000 | < 100 |  |  | 
CC(=O)N1CCc2nc(N3CCN(Cc4ccccc4C)CC3)c(-c3cnn(C)c3)nc2C1 [Compound 510, 1-[3-(1-methyl-4-pyrazolyl)-2-{4-[(o-tolyl)methyl]-1-piperazinyl}-5,6,7,8-tetrahydro-1,4,6-triaza-6-naphthyl]-1-ethanone] |  |  |  |  | IC50 (GPR3; [1]): 1000 to 30000 nM; IC50 (GPR6; [2]): 1000 to 30000 nM
CC(=O)N1CCc2nc(N3CCC(Oc4ccc(F)cc4F)CC3)c(-c3cnn4c3CN(C(C)=O)CC4)nc2C1 [Compound 107, 1-(3-{6-acetyl-2-[4-(2,4-difluorophenoxy)piperidin-1-yl]-5H,6H,7H,8H-pyrido[3,4-b]pyrazin-3-yl}-4H,5H,6H,7H-pyrazolo[1,5-a]pyrazin-5-yl)ethan-1-one] |  |  | 1000 to 30000 | 1000 to 30000 | 
CC(=O)N1CCc2nc(N3CCC(C(=O)N(C)c4ccc(F)cc4)C3)c(-c3cnn(C)c3)nc2C1 (stereo not shown) [Compound 385, 1-[6-acetyl-3-(1-methyl-1H-pyrazol-4-yl)-5H,6H,7H,8H-pyrido[3,4-b]pyrazin-2-yl]-N-(4-fluorophenyl)-N-methylpyrrolidine-3-carboxamide] |  |  | 1000 to 30000 | ≥ 30000 | 
COc1ncc(-c2nc3c(nc2N2CCC(Oc4ccc(F)cc4F)CC2)CCN(C(C)=O)C3)cn1 [Compound 190, 1-{2-[4-(2,4-difluorophenoxy)piperidin-1-yl]-3-(2-methoxypyrimidin-5-yl)-5H,6H,7H,8H-pyrido[3,4-b]pyrazin-6-yl}ethan-1-one] |  |  | 1000 to 30000 | 100 to 1000 | 
CC(C)(O)Cc1cc2nc(N3CCC(Oc4ccc(F)cc4F)CC3)c(-c3cnn(C(F)F)c3)nc2cn1 [Compound 700, 1-{3-[1-(difluoromethyl)-4-pyrazolyl]-2-[4-(2,4-difluorophenoxy)-1-piperidyl]-1,4,6-triaza-7-naphthyl}-2-methyl-2-propanol] | 1000 to 30000 | 100 to 1000 |  |  | 
CC(=O)N1CCc2nc(N3CCC(Oc4ccc(F)cc4F)CC3)c(-c3cnn(C(C)C#N)c3)nc2C1 (stereo not shown) [Compound 208, 2-(4-{6-acetyl-2-[4-(2,4-difluorophenoxy)piperidin-1-yl]-5H,6H,7H,8H-pyrido[3,4-b]pyrazin-3-yl}-1H-pyrazol-1-yl)propanenitrile] |  |  | 1000 to 30000 | 100 to 1000 | 
CCn1cc(-c2nc3c(nc2N2CCC(Oc4ccc(F)cc4F)CC2)CCN(S(=O)(=O)CC)C3)cn1 [Compound 267, 4-(2,4-difluorophenoxy)-1-[6-(ethanesulfonyl)-3-(1-ethyl-1H-pyrazol-4-yl)-5H,6H,7H,8H-pyrido[3,4-b]pyrazin-2-yl]piperidine] | 1000 to 30000 | 100 to 1000 |  |  | 
C=CC(=O)N1CCc2nc(N3CCC(Oc4ccc(F)cc4F)CC3)c(-c3cnn(CC)c3)nc2C1 [Compound 310, 1-{2-[4-(2,4-difluorophenoxy)piperidin-1-yl]-3-(1-ethyl-1H-pyrazol-4-yl)-5H,6H,7H,8H-pyrido[3,4-b]pyrazin-6-yl}prop-2-en-1-one] | 1000 to 30000 | < 100 |  |  | 
CC(=O)N1CCc2nc(N3CCN(Cc4ccc(C(F)(F)F)cc4)CC3)c(-c3cnn(C)c3)nc2C1 [Compound 384, 1-[3-(1-methyl-1H-pyrazol-4-yl)-2-(4-{[4-(trifluoromethyl)phenyl]methyl}piperazin-1-yl)-5H,6H,7H,8H-pyrido[3,4-b]pyrazin-6-yl]ethan-1-one] |  |  | 1000 to 30000 | 1000 to 30000 | 
COc1cccc(-c2nc3c(nc2N2CCN(Cc4cc(Cl)ccc4Cl)CC2)CCN(C(C)=O)C3)n1 [Compound 183, 1-(2-{4-[(2,5-dichlorophenyl)methyl]piperazin-1-yl}-3-(6-methoxypyridin-2-yl)-5H,6H,7H,8H-pyrido[3,4-b]pyrazin-6-yl)ethan-1-one] |  |  | 1000 to 30000 | < 100 | 
O=C(C1COC1)N1CCc2nc(N3CCC(Oc4ccc(F)cc4F)CC3)c(-c3cn[nH]c3)nc2C1 [Compound 184, 4-(2,4-difluorophenoxy)-1-[6-(oxetane-3-carbonyl)-3-(1H-pyrazol-4-yl)-5H,6H,7H,8H-pyrido[3,4-b]pyrazin-2-yl]piperidine] |  |  | 1000 to 30000 | < 100 | 
CC(=O)N1CCc2nc(N3CCC(Oc4ccc(F)cc4F)CC3)c(-c3cnn(C4CN(C(C)=O)C4)c3)nc2C1 [Compound 163, 1-[3-(4-{6-acetyl-2-[4-(2,4-difluorophenoxy)piperidin-1-yl]-5H,6H,7H,8H-pyrido[3,4-b]pyrazin-3-yl}-1H-pyrazol-1-yl)azetidin-1-yl]ethan-1-one] |  |  | 1000 to 30000 | 1000 to 30000 | 
CC(C)(O)C(C)(O)c1cc2nc(-c3cnn(C(F)F)c3)c(N3CCN(Cc4ccc(F)cc4F)CC3)nc2cn1 (single isomer, unassigned) [Compound 663] | 1000 to 30000 | < 100 |  |  | 
C[C@H]1CN(Cc2ccc(F)cc2F)CCN1c1nc2ccncc2nc1-c1cnn(C)c1 (single isomer, unassigned) [Compound 225] |  |  | 1000 to 30000 | 100 to 1000 | 
CC(C)(O)C(O)c1cc2nc(-c3cnn(CF)c3)c(N3CCC(=Cc4ccc(F)cc4F)CC3)nc2cn1 (single isomer, unassigned) [Compound 777] | 100 to 1000 | 100 to 1000 |  |  | 
CCn1cc(-c2nc3c(nc2N2CCC(Oc4ccc(F)cc4F)CC2)CCN(C(=O)C2CC(F)(F)CN2C)C3)cn1 (stereo not shown) [Compound 483, (4,4-difluoro-1-methylpyrrolidin-2-yl)(2-(4-(2,4-difluorophenoxy)piperidin-1-yl)-3-(1-ethyl-1H-pyrazol-4-yl)-7,8-dihydropyrido[3,4-b]pyrazin-6(5H)-yl)methanone] |  |  | 1000 to 30000 | 100 to 1000 | 
COC[C@@](C)(O)c1cc2nc(-c3cnn(C)c3)c(N3CCC(Oc4ccc(F)cc4F)CC3)nc2cn1 (single isomer, unassigned) [Compound 688] | 100 to 1000 | 100 to 1000 |  |  | 
CCn1cc(-c2nc3c(nc2N2CCC(Oc4ccc(F)cc4F)CC2)CCN(C(=O)C(C)(O)CO)C3)cn1 (stereo not shown) [Compound 519, 1-{2-[4-(2,4-difluorophenoxy)-1-piperidyl]-3-(1-ethyl-4-pyrazolyl)-5,6,7,8-tetrahydro-1,4,6-triaza-6-naphthyl}-2,3-dihydroxy-2-methyl-1-propanone] |  |  |  |  | IC50 (GPR3; [1]): 1000 to 30000 nM; IC50 (GPR6; [2]): 100 to 1000 nM
CC(=O)N1CCc2nc(N3CCN(Cc4ccccc4Cl)CC3)c(-c3cnn(C)c3)nc2C1 [Compound 507, 1-(2-{4-[(o-chlorophenyl)methyl]-1-piperazinyl}-3-(1-methyl-4-pyrazolyl)-5,6,7,8-tetrahydro-1,4,6-triaza-6-naphthyl)-1-ethanone] |  |  |  |  | IC50 (GPR3; [1]): 1000 to 30000 nM; IC50 (GPR6; [2]): 100 to 1000 nM
CC(C)(O)[C@](C)(O)c1cc2nc(-c3cnn(C4CC4)c3)c(N3CCN(Cc4ccccc4F)CC3)nc2cn1 (single isomer, unassigned) [Compound 775] | 1000 to 30000 | 100 to 1000 |  |  | 
